Experiment [1] deals with T1, Potassium voltage-gated channel subfamily B member 1 (Homo sapiens, UniProt Q14721).
T1 sequence (Q14721 whole entry): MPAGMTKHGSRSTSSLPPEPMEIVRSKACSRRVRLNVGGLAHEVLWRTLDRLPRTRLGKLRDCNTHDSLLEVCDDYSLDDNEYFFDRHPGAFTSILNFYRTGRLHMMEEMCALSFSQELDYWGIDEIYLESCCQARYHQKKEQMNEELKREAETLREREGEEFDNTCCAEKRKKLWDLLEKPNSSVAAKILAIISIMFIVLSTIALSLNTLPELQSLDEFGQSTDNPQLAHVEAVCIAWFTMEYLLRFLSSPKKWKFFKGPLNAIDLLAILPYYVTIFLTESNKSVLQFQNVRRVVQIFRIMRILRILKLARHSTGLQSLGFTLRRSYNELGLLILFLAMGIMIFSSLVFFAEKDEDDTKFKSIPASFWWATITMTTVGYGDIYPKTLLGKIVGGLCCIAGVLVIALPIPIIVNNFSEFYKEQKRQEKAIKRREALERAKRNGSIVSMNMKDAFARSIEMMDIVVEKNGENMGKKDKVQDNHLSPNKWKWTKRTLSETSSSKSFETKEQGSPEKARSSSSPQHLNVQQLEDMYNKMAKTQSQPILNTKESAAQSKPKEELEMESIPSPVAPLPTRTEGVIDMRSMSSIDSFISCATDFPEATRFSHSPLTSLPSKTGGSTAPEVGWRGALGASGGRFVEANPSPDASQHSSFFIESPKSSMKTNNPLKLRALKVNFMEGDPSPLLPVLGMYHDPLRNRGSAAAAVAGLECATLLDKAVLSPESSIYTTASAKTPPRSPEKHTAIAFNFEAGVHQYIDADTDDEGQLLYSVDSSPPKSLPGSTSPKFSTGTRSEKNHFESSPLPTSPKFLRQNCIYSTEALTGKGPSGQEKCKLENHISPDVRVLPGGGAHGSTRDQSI
As to the kind of experiment: Inhibition of human KV2.1 stably expressed in HEK293 cells by whole cell patch-clamp assay. The format is cell-based.

Experiment [2] deals with Potassium voltage-gated channel subfamily A member 5 (Homo sapiens, UniProt P22460). Kind of experiment: Inhibition of KV1.5 (unknown origin) by whole cell patch-clamp assay. On the technique in general: Patch clamp records ionic current or voltage across a cell membrane.
Sequence of Potassium voltage-gated channel subfamily A member 5 (P22460 whole entry): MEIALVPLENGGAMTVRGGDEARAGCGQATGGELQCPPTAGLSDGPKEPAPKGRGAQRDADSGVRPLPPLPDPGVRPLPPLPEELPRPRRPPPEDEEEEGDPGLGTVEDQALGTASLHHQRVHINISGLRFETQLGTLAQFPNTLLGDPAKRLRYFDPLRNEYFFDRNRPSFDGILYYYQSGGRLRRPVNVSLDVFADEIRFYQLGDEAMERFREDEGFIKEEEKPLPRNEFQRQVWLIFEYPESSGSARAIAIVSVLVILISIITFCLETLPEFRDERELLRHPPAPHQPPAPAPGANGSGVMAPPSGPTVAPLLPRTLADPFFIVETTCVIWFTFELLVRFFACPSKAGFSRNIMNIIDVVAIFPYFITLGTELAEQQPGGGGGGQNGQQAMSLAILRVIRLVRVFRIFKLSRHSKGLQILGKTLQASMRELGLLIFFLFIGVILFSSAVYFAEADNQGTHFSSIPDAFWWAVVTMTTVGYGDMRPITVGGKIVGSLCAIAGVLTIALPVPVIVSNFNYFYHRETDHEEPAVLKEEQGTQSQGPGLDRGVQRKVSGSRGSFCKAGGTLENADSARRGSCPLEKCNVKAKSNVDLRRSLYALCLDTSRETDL
Experiment [3] has as its target Voltage-gated inwardly rectifying potassium channel KCNH2 (Homo sapiens, UniProt Q12809). As to the kind of experiment: Inhibition of human ERG by whole cell patch-clamp assay. It is filed as toxicity.
Experiment [4] has as its target T2, Voltage-gated potassium channel KCNC1 (Homo sapiens, UniProt P48547).
T2 sequence (P48547 whole entry): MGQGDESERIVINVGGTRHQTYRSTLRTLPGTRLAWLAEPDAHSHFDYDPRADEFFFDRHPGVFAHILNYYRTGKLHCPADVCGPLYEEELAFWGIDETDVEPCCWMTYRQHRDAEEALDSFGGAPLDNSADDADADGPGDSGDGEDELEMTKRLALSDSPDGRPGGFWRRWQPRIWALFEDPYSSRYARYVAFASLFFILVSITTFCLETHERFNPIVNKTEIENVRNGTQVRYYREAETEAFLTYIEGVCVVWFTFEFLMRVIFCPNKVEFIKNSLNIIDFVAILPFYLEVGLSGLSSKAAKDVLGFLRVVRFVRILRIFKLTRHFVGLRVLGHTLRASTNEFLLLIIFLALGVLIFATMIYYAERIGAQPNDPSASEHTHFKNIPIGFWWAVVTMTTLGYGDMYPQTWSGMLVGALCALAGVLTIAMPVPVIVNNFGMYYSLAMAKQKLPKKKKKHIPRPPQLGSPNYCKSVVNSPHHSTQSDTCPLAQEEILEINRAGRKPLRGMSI
Kind of experiment: Inhibition of KV3.1 (unknown origin) by whole cell patch-clamp assay.

The target in experiment [5] is T3, Potassium voltage-gated channel subfamily B member 1 (Homo sapiens) (UniProt Q14721).
T3 sequence (whole entry): T1 sequence (Q14721 whole entry)
As to the kind of experiment: Inhibition of human KV2.1 stably expressed in HEK293 cells at 1 uM by whole cell patch-clamp assay. The format is cell-based.

The structures appear in SMILES notation. Calls of active or inactive are those of the source. The calls are words filed in the database; no cut-off is given here. A value given as a limit tells only on which side of the number the result lay.

Usually IC50 stands for the midpoint of a concentration-inhibition curve. Low values mean greater potency, high ones weaker potency.

Sequence of Voltage-gated inwardly rectifying potassium channel KCNH2 (Q12809 whole entry): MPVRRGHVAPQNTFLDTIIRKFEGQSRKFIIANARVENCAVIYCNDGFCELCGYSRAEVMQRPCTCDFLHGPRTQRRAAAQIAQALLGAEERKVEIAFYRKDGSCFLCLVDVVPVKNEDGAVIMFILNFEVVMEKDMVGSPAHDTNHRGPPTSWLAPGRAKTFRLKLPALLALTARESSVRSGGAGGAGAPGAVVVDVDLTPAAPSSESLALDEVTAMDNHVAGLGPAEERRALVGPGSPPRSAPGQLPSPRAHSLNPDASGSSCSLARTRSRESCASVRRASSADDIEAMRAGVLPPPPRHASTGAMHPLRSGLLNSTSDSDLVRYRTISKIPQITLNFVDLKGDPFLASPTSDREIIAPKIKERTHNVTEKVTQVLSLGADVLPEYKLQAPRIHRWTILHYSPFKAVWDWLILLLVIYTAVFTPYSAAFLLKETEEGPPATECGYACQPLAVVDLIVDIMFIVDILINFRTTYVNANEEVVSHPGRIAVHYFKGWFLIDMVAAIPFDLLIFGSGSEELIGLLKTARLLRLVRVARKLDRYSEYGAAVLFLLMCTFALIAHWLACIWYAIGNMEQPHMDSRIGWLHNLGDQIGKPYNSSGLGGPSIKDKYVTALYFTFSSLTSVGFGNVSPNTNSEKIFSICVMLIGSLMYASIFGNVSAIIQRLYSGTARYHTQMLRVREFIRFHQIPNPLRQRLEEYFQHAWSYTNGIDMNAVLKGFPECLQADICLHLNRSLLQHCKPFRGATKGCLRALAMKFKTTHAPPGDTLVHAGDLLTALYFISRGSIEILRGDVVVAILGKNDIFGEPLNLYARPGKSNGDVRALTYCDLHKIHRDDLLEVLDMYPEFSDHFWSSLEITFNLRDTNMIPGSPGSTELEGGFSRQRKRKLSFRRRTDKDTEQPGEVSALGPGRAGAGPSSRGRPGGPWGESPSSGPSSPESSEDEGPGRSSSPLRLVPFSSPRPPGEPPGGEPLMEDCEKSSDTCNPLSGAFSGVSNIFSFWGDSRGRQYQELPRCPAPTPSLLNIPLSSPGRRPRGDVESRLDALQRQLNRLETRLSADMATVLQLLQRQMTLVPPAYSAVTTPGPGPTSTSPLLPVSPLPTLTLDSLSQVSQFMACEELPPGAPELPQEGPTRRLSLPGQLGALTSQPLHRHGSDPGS

Take `CCOc1ccc(NC(=O)C(C)C)cc1C(=O)NC(C)c1cccc(N2CCCC2)c1` (stereo not drawn): the half-inhibitory concentration (IC50) in experiment [1] was ~1000 nM.
The same measure, in the same setting: to `COc1ccc(NC(=O)C(C)C)cc1C(=O)NC(C)c1cccc(-c2nccs2)c1` (stereo not drawn) belongs 3000 nM; to `CCOc1ccc(NC(=O)OC(C)C)cc1C(=O)NC(C)c1cccc(-c2nccs2)c1` (stereo not drawn), 1000 nM; to `CC(C)COc1ccc(NC(=O)C(C)C)cc1C(=O)NC(C)c1cccc(-c2nccs2)c1` (stereo not drawn), > 1000 nM.
For `CCOc1ccc(NC(=O)C(C)C)cc1C(=O)NCc1cccc(N2CCCC2)c1`, in experiment [1], the concentration for half-maximal inhibition (IC50) is ~1000 nM.
As to `CCOc1ccc(NC(=O)C(C)C)cc1C(=O)NC(C)c1cccc(OC)n1` (stereo not drawn), the IC50 in experiment [1] was 50 nM; in experiment [2], 10000 nM; in experiment [3] it was > 30000 nM.
Consider `CCCOc1ccc(NC(=O)C(C)C)cc1C(=O)NC(C)c1cccc(-c2nccs2)c1` (stereo not drawn), for which the IC50 in experiment [1] came to 590 nM.
On to `CCOc1ccc(NC(=O)C(C)C)cc1C(=O)NCc1cccc(Br)c1`, for which the IC50 in experiment [1] was ~1000 nM.
`CCOC(=O)Nc1ccc(OCC)c(C(=O)NC(C)c2cccc(-c3nccs3)c2)c1` (stereo not drawn) yielded an IC50 in experiment [1] of 1100 nM.
Consider `CC(C)C(=O)Nc1ccc(N(C)C)c(C(=O)NCc2cccc(-c3nccs3)c2)c1`, for which the IC50 was 390 nM in experiment [1], 11000 nM in experiment [2], > 30000 nM in experiment [4] and 30000 nM in experiment [3].
As to `CC(C)C(=O)Nc1ccc(N(C)C)c(C(=O)NCc2ccccn2)c1`, the IC50 in experiment [1] is 540 nM; in experiment [2], > 30000 nM; in experiment [4] it was > 30000 nM; in experiment [3] it was 30000 nM.
Regarding `CCOc1ccc(NC(=O)C2CC2)cc1C(=O)NC(C)c1cccc(-c2nccs2)c1` (stereo not drawn), 1100 nM corresponded to half-maximal inhibition in experiment [1] (IC50).
For the compound `CCOc1ccc(C(=O)NC(C)C)cc1C(=O)NCc1cccc(-c2nccs2)c1`, in experiment [5], the inhibition entry was “inactive”.
For the compound `CC(C)C(=O)Nc1ccc(N(C)C)c(C(=O)NCc2cccc(-c3ccco3)c2)c1`, the IC50 in experiment [1] is > 1000 nM.
As to `CCOc1ccc(NC(=O)C(C)C)cc1C(=O)NC(C)c1ccnc(C)n1` (stereo not drawn), in experiment [1], the half-inhibitory concentration (IC50) was ~1000 nM.
Take `CCOc1ccc(NS(=O)(=O)CC)cc1C(=O)NC(C)c1cccc(-c2nccs2)c1` (stereo not drawn): the IC50 in experiment [1] is 10000 nM.
On to `CCOc1ccc(NC(=O)C(C)C)cc1C(=O)NC(C)c1cccc(Br)c1` (stereo not drawn), for which, in experiment [1], the half-inhibitory concentration (IC50) was ~1000 nM.
Same read-out and setting: in the case of `CCOc1ccc(NC(=O)C(F)(F)F)cc1C(=O)NC(C)c1cccc(-c2nccs2)c1` (stereo not drawn) it was > 10000 nM; in that of `CCOc1ccc(NC(=O)C(C)C)cc1C(=O)NCc1cccc(OC(F)(F)F)c1`, 337 nM; in that of `CCOc1ccc(NC(C)=O)cc1C(=O)NC(C)c1cccc(-c2nccs2)c1` (stereo not drawn), ~10000 nM.
Turning to `CCOc1ccc(NC(=O)CC)cc1C(=O)NC(C)c1cccc(-c2nccs2)c1` (stereo not drawn), in experiment [1], the IC50 is ~10000 nM.
The compound `CCOc1ccc(NC(=O)C(C)C)cc1C(=O)NC(C)c1cccc(-c2ncccn2)c1` (stereo not drawn) returned a 50% inhibitory concentration (IC50) in experiment [1] of 660 nM.
With `CCOc1ccc(NC(=O)c2ccccc2)cc1C(=O)NCc1cccc(-c2nccs2)c1`, the inhibition entry in experiment [5] was “inactive”.
In the case of `CCOc1ccc(NC(=O)C(C)C)cc1C(=O)NC(C)c1cncc(C)n1` (stereo not drawn), the IC50 in experiment [1] was > 1000 nM.
Compound `CCOc1ccc(NC(=O)C(C)C)cc1C(=O)NCc1cccc(-c2nccs2)c1` registered an IC50 in experiment [1] of 530 nM.
Still for that read-out and setting: to `CCOc1ccc(NC(=O)C(C)C)cc1C(=O)NC(C)c1ccnc(NC)n1` (stereo not drawn) belongs > 1000 nM.
Still for that read-out and setting: in the case of `CC(C)C(=O)Nc1ccc(N(C)C)c(C(=O)NCc2cccnc2)c1` it was > 1000 nM; in that of `CCOc1ccc(NC(=O)C(C)C)cc1C(=O)NC(C)c1cccc(F)n1` (stereo not drawn), 320 nM.
Consider `CCOc1ccc(NC(=O)C(C)C)cc1C(=O)NC(C)c1cccc(Cl)n1` (stereo not drawn), for which, in experiment [1], the 50% inhibitory concentration (IC50) was ~1000 nM.
As to `CCOc1ccc(NC(=O)C(C)C)cc1C(=O)NCc1cccc(OC(F)F)c1`, the IC50 is 300 nM in experiment [1], 14200 nM in experiment [2], > 30000 nM in experiment [4] and 30000 nM in experiment [3].
As for `CC(C)C(=O)Nc1ccc(N(C)C)c(C(=O)NCc2ccncc2)c1`, the inhibition result in experiment [5] was “inactive”.
Consider `CCOc1ccc(NC(=O)C(C)C)cc1C(=O)NC(C)c1cccc(OC(F)F)c1` (stereo not drawn), for which the results for the IC50 in experiment [1], in experiment [2] and in experiment [3] were 250 nM, 10000 nM and 10000 nM, respectively.
In turn, `CC(C)C(=O)Nc1ccc(N(C)C)c(C(=O)NCc2cccc(-c3ccccc3)c2)c1` gave an IC50 in experiment [1] of 3550 nM.
Consider `CCOc1ccc(NC(=O)C(C)C)cc1C(=O)NC(C)c1cccc(OC)c1` (stereo not drawn), for which inhibition in experiment [1] was half-maximal at 370 nM (IC50).
For the compound `CCOc1ccc(N2CCCC2=O)cc1C(=O)NCc1cccc(-c2nccs2)c1`, the inhibition entry in experiment [5] is “inactive”.
Take `CCOc1ccc(NC(=O)C(C)C)cc1C(=O)NC(C)c1cccc(Br)n1` (stereo not drawn): in experiment [1], the IC50 was ~1000 nM.
In experiment [1], `CCOc1ccc(NC(=O)C2CCC2)cc1C(=O)NC(C)c1cccc(-c2nccs2)c1` (stereo not drawn) displayed an IC50 of 550 nM.
In the case of `CCOc1ccc(N(C)C(=O)C(C)C)cc1C(=O)NCc1cccc(-c2nccs2)c1`, the inhibition result in experiment [5] was “inactive”.
As to `CC(C)C(=O)Nc1ccc(OCC(F)(F)F)c(C(=O)NCc2cccc(-c3nccs3)c2)c1`, the 50% inhibitory concentration (IC50) in experiment [1] was > 1000 nM.
In the case of `CCOc1ccc(NC(=O)C(C)C)cc1C(=O)NCc1cccc(-c2ccccn2)c1`, in experiment [1], the IC50 was > 1000 nM.
For `CC(C)C(=O)Nc1cccc(C(=O)NC(C)c2cccc(-c3nccs3)c2)c1` (stereo not drawn), the 50% inhibitory concentration (IC50) in experiment [1] is > 1000 nM.
On to `CC(C)Oc1ccc(NC(=O)C(C)C)cc1C(=O)NC(C)c1cccc(-c2nccs2)c1` (stereo not drawn), for which the IC50 in experiment [1] is > 1000 nM.
`CC(C)C(=O)Nc1ccc(N(C)C)c(C(=O)NC(C)c2ccccc2)c1` (racemic) came in with an IC50 in experiment [1] of 480 nM.
Regarding `CC(C)C(=O)Nc1ccc(N(C)C)c(C(=O)NCc2cccc3ccccc23)c1`, the 50% inhibitory concentration (IC50) in experiment [1] is > 1000 nM.
The same measure, in the same setting: to `CCOc1ccc(NC(=O)C(C)C)cc1C(=O)NC(C)c1cccc(N2CCC2)c1` (stereo not drawn) belongs 320 nM; to `CCOc1ccc(NC(=O)C(C)C)cc1C(=O)NC(C)c1ccnc(OC)n1` (stereo not drawn), ~1000 nM.
For `CCOc1ccc(NC(=O)C(C)C)cc1C(=O)NC(C)c1ccccc1` (stereo not drawn), the IC50 in experiment [1] is ~1000 nM.
In the case of `CCOc1ccc(NC(=O)C(C)C)cc1C(=O)NC(C)c1ccnc(OC)c1` (stereo not drawn), in experiment [1], the IC50 amounted to 430 nM.
As for `CCOc1ccc(NC(=O)C(C)C)cc1C(=O)NC(C)c1ccnc(Cl)n1` (stereo not drawn), the IC50 in experiment [1] is ~1000 nM.
With `CCOc1ccc(NC(=O)C2CCCC2)cc1C(=O)NC(C)c1cccc(-c2nccs2)c1` (stereo not drawn), the IC50 in experiment [1] was > 10000 nM.
With `CCOc1ccc(NC(=O)C(C)C)cc1C(=O)N(C)Cc1cccc(-c2nccs2)c1`, the inhibition entry in experiment [5] is “inactive”.
For the compound `CCOc1ccc(NC(=O)C(C)C)cc1C(=O)NC(C)c1cccc(C)c1` (stereo not drawn), the IC50 was 80 nM in experiment [1], 5700 nM in experiment [2], > 30000 nM in experiment [4] and 30000 nM in experiment [3].
As to `CCOc1ccc(NC(=O)C(C)C)cc1C(=O)NC(C)c1cccc(-c2nccs2)c1` (stereo not drawn), the IC50 in experiment [1] was 430 nM; in experiment [2], 10000 nM; in experiment [4], > 30000 nM; in experiment [3] it was > 30000 nM.
For `CC(C)C(=O)Nc1ccc(OCC(F)(F)F)c(C(=O)NC(C)c2cccc(-c3nccs3)c2)c1` (stereo not drawn), the IC50 in experiment [1] is > 1000 nM.

For the origin of these results see ChEMBL document CHEMBL5532672, “Discovery of 2-Ethoxy-5-isobutyramido-N-1-substituted Benzamide Derivatives as Selective Kv2.1 Inhibitors with In Vivo Neuroprotective Effects” (J Med Chem, 2024).
